Experimental data as given in US12629357B2, “Treatment of viral infections, of organ injury, and of related conditions using a HIF prolyl hydroxylase inhibitor or a HIF-alpha stabilizer” (Akebia Therapeutics, Inc., priority 2020, dated 2026).

System: hospitalized patients with coronavirus disease 2019 (COVID-19)
Test: multicenter, randomized, double-blind, placebo-controlled Bayesian adaptive clinical trial for prevention and treatment of ARDS
Format: in vivo, human
Description: This example describes use of 5-(3-chlorophenyl)-3-hydroxypyridine-2-carbonyl] amino} acetic acid (vadadustat) in a multicenter, randomized, double-blind, placebo-controlled Bayesian adaptive clinical for the prevention and treatment of acute respiratory distress syndrome (ARDS) in hospitalized patients with coronavirus disease 2019 (COVID-19).
Inclusion criteria may include any or all of the following: • 1. Men and women ≥18 years of age. • 2. Laboratory-confirmed diagnosis of COVID-19 by detection of SARS-CoV-2 RNA by RT-PCR (reverse transcription polymerase chain reaction) from any specimen respiratory. • 3. Admitted to the hospital. • 4. Within 24 hours of hospital admission. • 5. Oxygen saturation of hemoglobin by pulse oximetry at room air ≤94%. • 6. Participation in any other clinical trial for the treatment for COVID-19 is not allowed. • 7. Understands the procedures and requirements of treatment and provides written informed consent and authorization for protected health information disclosure.
• 1. Males with hemoglobin >17.5 g/dL or females >15.5 g/dL. • 2. Hypersensitivity to vadadustat or any of its excipients. • 3. Placed on mechanical ventilation before randomization. • 4. Hemoglobin above the gender specific upper limit of normal (ULN) at randomization. • 5. Aspartate aminotransferase (AST), alanine aminotransferase (ALT), or total bilirubin >2.0×ULN at randomization. • 6. Patients who have erythrocytosis or polycethemia vera. • 7. Patients receiving any of the following medications: sulfasalazine or other BCRP substrates, probenecid or other UGT and OAT1/3 inhibitors. • 8. Women who are pregnant or breastfeeding, or positive pregnancy test before randomization. • 9. Patients on maintenance dialysis. • 10. Patients who have received a solid organ transplant. • 11. Patients who are prisoners.
Following screening, patients are randomized in a 1:1 ratio to either vadadustat 900 mg or placebo. Randomination is stratified by site, and MSOFA score at baseline (<4 and ≥4).
A subject may receive vadadustat (e.g., 900 mg vadadustat as 6 tablets once daily) for 14 days and without regard for meals at approximately the same time each day. Tablets can be crushed using a pill crusher and administered to an intubated patient through a nasogastric tube.
For example, the efficacy of vadadustat (e.g., 900 mg per day) for the prevention and treatment of ARDS among COVID-19 patients may be measured by ≥1 point deterioration on the NIAID ordinal scale for clinical improvement at day seven or day 14 of treatment.
Efficacy may also be assessed according to any of the following (including any combination thereof): • 1. The proportion of patients at day 14 who are dead (8) or hospitalized, on invasive mechanical ventilation or ECMO (7) or hospitalized, on non-invasive ventilation or high flow oxygen devices (6) on the NIAID-OS. • 2. Proportions of patients with a score of 0 at 14 days on the MSOFA (Modified Sequential Organ Failure Assessment) scale:
• 3. Average MSOFA scores at day 7 and day 14. • 4. Proportion of patients who develop ARDS or experienced increased ARDS severity from baseline based on the Berlin scale. • 5. Ventilator-free survival at day 7 and day 14. • 6. Overall survival at day 7 and day 14. • 7. Proportion of patients with hypotension (MAP (Mean Arterial Pressure)<70 mm Hg or requirement for inotropes or vasopressors to maintain blood pressure) at day 7 and day 14. • 8. Proportion of patients with acute kidney injury at day 7 and day 14. • 9. Time to hospital discharge.

[1] = vadadustat 900 mg once daily for 14 days compared to placebo, day 7 and day 14

For O=C(O)CNC(=O)c1ncc(-c2cccc(Cl)c2)cc1O [vadadustat, {[5-(3-chlorophenyl)-3-hydroxypyridine-2-carbonyl]amino}acetic acid], the “proportion of patients who develop ARDS or experienced increased ARDS severity from baseline based on the Berlin scale” value (vadadustat 900 mg once daily for 14 days compared to placebo) was “a lower or a reduction”, the “proportions of patients with a score of 0 at 14 days on the MSOFA” value (vadadustat 900 mg once daily for 14 days compared to placebo, 14 days) was “an increase” and the “average MSOFA scores at day 7 and day 14” value [1] was “a lower or a reduction”. For the same compound, the “number of overall survival at day 7 and day 14” value [1] was “a greater or an increase”, the “number of ventilator-free survival at day 7 and day 14” value [1] was “a greater or an increase” and the “proportion of patients with hypotension (MAP <70 mm Hg or requirement for inotropes or vasopressors to maintain blood pressure) at day 7 and day 14” value [1] was “a lower or a reduction”. The “time to hospital discharge” value (vadadustat 900 mg once daily for 14 days versus placebo) was “a shorter or a reduction” and the “proportion of patients with acute kidney injury at day 7 and day 14” value (vadadustat 900 mg once daily for 14 days versus placebo, day 7 and day 14) was “a lower or a reduction”.
